Literature values in US20210181182A1, “METHOD FOR IDENTIFICATION OF PERTURBAGENS OF PARTICULAR BIOLOGICAL PROCESSES AND CELL SYSTEMS WITHIN LIVING CELLS” (priority 2018, published 2021).
Where a name gives a salt, the structure may show the parent alone. Marks after values point to notes of the source that are not given here.

System: mitochondria membrane potential
Conditions: HepG2, 1-hour incubation at concentrations below 60 μM; cited from earlier work

| Compound | MMP assay hitCall |
| --- | --- |
| CCOC(=O)/C=C\C(=O)OCC [Diethyl maleate] | 0* |
| CC1COC(Cn2cncn2)(c2ccc(Oc3ccc(Cl)cc3)cc2Cl)O1 (stereo not shown) [Difenoconazole] | 1 |
| COc1ccc(C(=CC(=O)N2CCOCC2)c2ccc(Cl)cc2)cc1OC [Dimethomorph] | 0 |
| COC(=O)/C=C\C(=O)OC [Dimethyl maleate] | 0 |
| CCC(C)c1cc([N+](=O)[O-])cc([N+](=O)[O-])c1O (stereo not shown) [Dinoseb] | 1 |
| c1ccc(Nc2ccccc2)cc1 [Diphenylamine] | 1 |
| C=CCOC(=O)/C=C\C(=O)OCC=C [Diprop-2-en-1-yl (2Z)-but-2-enedioate] | 0 |
| CCCCCCCCCCCC[N+](C)(C)C.[Br-] [Dodecyltrimethylammonium bromide] | 1 |
| CCCCCCCCCCCC[N+](C)(C)C.[Cl-] [Dodecyltrimethylammonium chloride] | 0* |
| CN1CCN(c2ccccc2/C=C2\SCCN(c3ccc(Cl)c(Cl)c3)C2=O)CC1 [Elzasonan] | 0 |
| CCOC1Oc2ccc(OS(C)(=O)=O)cc2C1(C)C (stereo not shown) [Ethofumesate] | 0 |
| CCOc1cc(C(C)(C)C)ccc1C1COC(c2c(F)cccc2F)=N1 (stereo not shown) [Etoxazole] | 1 |
| C=CCc1ccc(O)c(OC)c1 [Eugenol] | 0* |
| C=CCc1ccc(OC(=O)Cc2ccccc2)c(OC)c1 [Eugenyl phenylacetate] | 0 |
| CSC1=N[C@@](C)(c2ccccc2)C(=O)N1Nc1ccccc1 [Fenamidone] | 1 |
| CC(C)(C)c1ccc(CCOc2ncnc3ccccc23)cc1 [Fenazaquin] | 0* |
| COP(=S)(OC)Oc1ccc([N+](=O)[O-])c(C)c1 [Fenitrothion] | 0* |
| CCOC(=O)NCCOc1ccc(Oc2ccccc2)cc1 [Fenoxycarb] | 0* |
| N#Cc1nn(-c2c(Cl)cc(C(F)(F)F)cc2Cl)c(N)c1[S+]([O-])C(F)(F)F (stereo not shown) [Fipronil] | 1 |
| CC(C)N(C(=O)COc1nnc(C(F)(F)F)s1)c1ccc(F)cc1 [Flufenacet] | 0 |
| C#CCN1C(=O)COc2cc(F)c(N3C(=O)C4=C(CCCC4)C3=O)cc21 [Flumioxazin] | 0 |

| Compound | MMP assay hitCall |
| --- | --- |
| O=C(Nc1cccc(C(F)(F)F)c1)c1cc(Br)cc(Br)c1O [Fluorosalan] | 1 |
| CO/N=C(/C1=NOCCO1)c1ccccc1Oc1ncnc(Oc2ccccc2Cl)c1F [Fluoxastrobin] | 1 |
| C[Si](Cn1cncn1)(c1ccc(F)cc1)c1ccc(F)cc1 [Flusilazole] | 1 |
| CC(C)Oc1cccc(NC(=O)c2ccccc2C(F)(F)F)c1 [Flutolanil] | 1 |
| O=C(Nc1ccccc1)Nc1ccnc(Cl)c1 [Forchlorfenuron] | 1 |
| CNC(=O)Oc1cccc(N=CN(C)C)c1 [Formetanate hydrochloride] | 0 |
| C[C@@H]1[C@@H](c2ccc(Cl)cc2)SC(=O)N1C(=O)NC1CCCCC1 [Hexythiazox] | 1 |
| CC(C)(O)C(=O)Nc1ccc([N+](=O)[O-])c(C(F)(F)F)c1 [Hydroxyflutamide] | 1 |
| N#Cc1cc(I)c(O)c(I)c1 [Ioxynil] | 1 |
| CC(C)C1CCC(Cc2ccc(Cl)cc2)C1(O)Cn1cncn1 (stereo not shown) [Ipconazole] | 1 |
| O=c1c(O)c(-c2ccc(O)cc2)oc2cc(O)cc(O)c12 [Kaempferol] | 1 |
| CC(=O)N1CCN(c2ccc(OCC3COC(Cn4ccnc4)(c4ccc(Cl)cc4Cl)O3)cc2)CC1 (stereo not shown) [Ketoconazole, reference compound] | 1 |
| CO/N=C(/C(=O)OC)c1ccccc1COc1ccccc1C [Kresoxim-methyl] | 0* |
| CON(C)C(=O)Nc1ccc(Cl)c(Cl)c1 [Linuron] | 1 |
| CCOC(=O)N1CCC(=C2c3ccc(Cl)cc3CCc3cccnc32)CC1 [Loratadine, reference compound] | 1 |
| CC[C@H](C)C(=O)O[C@H]1C[C@@H](C)C=C2C=C[C@H](C)[C@H](CC[C@@H]3C[C@@H](O)CC(=O)O3)[C@H]21 [Lovastatin, reference compound] | 1 |
| CCOC(=O)CC(SP(=S)(OC)OC)C(=O)OCC (stereo not shown) [Malathion] | 0* |
| Cc1ccccc1C(=O)Nc1cccc(OC(C)C)c1 [Mepronil] | 1 |
| CC1(C)CCC(Cc2ccc(Cl)cc2)C1(O)Cn1cncn1 (stereo not shown) [Metconazole] | 1 |
| C1N2CN3CN1CN(C2)C3 [Methenamine, reference compound] | 0 |
| CCCCCC#CC(=O)OC [Methyl 2-octynoate] | 0 |

| Compound | MMP assay hitCall |
| --- | --- |
| COC(=O)/C=C(\C)CCC=C(C)C [Methyl geranate] | 0 |
| CN=C=S [Methyl isothiocyanate] | 0 |
| CN(C)c1ccc(/N=N/c2ccccc2C(=O)O)cc1 [Methyl red] | 0 |
| CC(=O)/C=C/c1ccccc1 [Methyl trans-styryl ketone] | 0 |
| CCc1cccc(C)c1N(C(=O)CCl)C(C)COC (stereo not shown) [Metolachlor] | 0 |
| COC(=O)c1ccccc1S(=O)(=O)NC(=O)Nc1nc(C)nc(OC)n1 [Metsulfuron-methyl] | 0 |
| CC#C[C@]1(O)CC[C@H]2[C@@H]3CCC4=CC(=O)CCC4=C3[C@@H](c3ccc(N(C)C)cc3)C[C@@]21C [Mifepristone, reference compound] | 1 |
| COc1ccc(S(=O)(=O)N2C(=O)[C@@](c3ccccc3OC)(N3C[C@H](O)C[C@H]3C(=O)N(C)C)c3cc(Cl)ccc32)c(OC)c1 [Nelivaptan] | 0 |
| CC1(C)NC(=O)N(c2ccc([N+](=O)[O-])c(C(F)(F)F)c2)C1=O [Nilutamide, reference compound] | 0* |
| CNc1cnn(-c2cccc(C(F)(F)F)c2)c(=O)c1Cl [Norflurazon] | 0 |
| O=C(NC(=O)c1c(F)cccc1F)Nc1ccc(OC(F)(F)C(F)OC(F)(F)F)c(Cl)c1 (stereo not shown) [Novaluron] | 0 |
| CC(C)(C)CC(C)(C)c1ccc(O)c(-n2nc3ccccc3n2)c1 [Octrizole] | 1 |
| CC(C)Oc1cc(-n2nc(C(C)(C)C)oc2=O)c(Cl)cc1Cl [Oxadiazon] | 1 |
| CC1=C(C(=O)Nc2ccccc2)S(=O)(=O)CCO1 [Oxycarboxin] | 0 |
| CCOc1cc(Oc2ccc(C(F)(F)F)cc2Cl)ccc1[N+](=O)[O-] [Oxyfluorfen] | 1 |
| CCOP(=S)(OCC)Oc1ccc([N+](=O)[O-])cc1 [Parathion] | 1 |
| Oc1c(Cl)c(Cl)c(Cl)c(Cl)c1Cl [Pentachlorophenol] | 1 |
| Nc1ccc(/N=N/c2ccccc2)c(N)n1 [Phenazopyridine hydrochloride, reference compound] | 1 |
| CCOP(=S)(OCC)SCSCC [Phorate] | 0* |
| CCOP(=S)(OCC)SCn1c(=O)oc2cc(Cl)ccc21 [Phosalone] | 1 |
| C#CCC1=C(C)C(OC(=O)C2C(C=C(C)C)C2(C)C)CC1=O (stereo not shown) [Prallethrin] | 1 |

| Compound | MMP assay hitCall |
| --- | --- |
| CCCN(CCOc1c(Cl)cc(Cl)cc1Cl)C(=O)n1ccnc1 [Prochloraz] | 0* |
| CCCSP(=O)(OCC)Oc1ccc(Br)cc1Cl (stereo not shown) [Profenofos] | 1 |
| CCC(=O)Nc1ccc(Cl)c(Cl)c1 [Propanil] | 1 |
| C#CCOS(=O)OC1CCCCC1Oc1ccc(C(C)(C)C)cc1 (stereo not shown) [Propargite] | 1 |
| C#CC(C)(C)NC(=O)c1cc(Cl)cc(Cl)c1 [Propyzamide] | 0 |
| COC(=O)N(OC)c1ccccc1COc1ccn(-c2ccc(Cl)cc2)n1 [Pyraclostrobin] | 1 |
| CC(C)(C)c1ccc(CSc2cnn(C(C)(C)C)c(=O)c2Cl)cc1 [Pyridaben, reference compound] | 1 |
| Cc1cc(C)nc(Nc2ccccc2)n1 [Pyrimethanil] | 0 |
| CC(COc1ccc(Oc2ccccc2)cc1)Oc1ccccn1 (stereo not shown) [Pyriproxyfen] | 0 |
| CC(C)=CC1C(C(=O)OCc2coc(Cc3ccccc3)c2)C1(C)C (stereo not shown) [Resmethrin] | 1 |
| C=C(C)[C@H]1Cc2c(ccc3c2O[C@@H]2COc4cc(OC)c(OC)cc4[C@@H]2C3=O)O1 [Rotenone, reference compound] | 1 |
| CCCN(CC)CC1COC2(CCC(C(C)(C)C)CC2)O1 (stereo not shown) [Spiroxamine] | 0 |
| CO[C@@H]1[C@H](OC(=O)NC(=O)CCl)CC[C@]2(CO2)[C@H]1[C@@]1(C)O[C@@H]1CC=C(C)C [TNP-470] | 0 |
| CCCCCCCCCCCCCC[N+](C)(C)C [Tetradonium bromide] | 0 |
| CC(C)=CC1C(C(=O)OCN2C(=O)C3=C(CCCC3)C2=O)C1(C)C (stereo not shown) [Tetramethrin] | 1 |
| COC(=O)c1c(C(F)F)nc(C(F)(F)F)c(C2=NCCS2)c1CC(C)C [Thiazopyr] | 0 |
| COC(=O)NC(=S)Nc1ccccc1NC(=S)NC(=O)OC [Thiophanate-methyl] | 0* |
| O=C(O)Cc1cc(I)c(Oc2ccc(O)c(I)c2)c(I)c1 [Tiratricol, reference compound] | 0 |
| Cc1ccc(S(=O)(=O)NC(=O)NN2CCCCCC2)cc1 [Tolazamide, reference compound] | 0 |
| CC(C)(C)C(=O)C(Oc1ccc(Cl)cc1)n1cncn1 (stereo not shown) [Triadimefon] | 0 |
| CC(C)(C)C(O)C(Oc1ccc(Cl)cc1)n1cncn1 (stereo not shown) [Triadimenol] | 0 |

Same assay, conditions: cited from earlier work

| Compound | MMP assay hitCall |
| --- | --- |
| Oc1c(Cl)cc(Cl)c(Cl)c1Cc1c(O)c(Cl)cc(Cl)c1Cl [Hexachlorophene] | 1 |
| CN(C)c1ccc(N=O)cc1 [N,N-Dimethyl-4-nitrosoaniline] | 0 |
| CC(C)Nc1ccc(Nc2ccccc2)cc1 [N-Isopropyl-N′-phenyl-p-phenylenediamine] | 0 |
| CCC[CH2][Sn]([Cl])([CH2]CCC)[CH2]CCC [Tributyltin chloride] | 1 |
